Experimental data from paper PMC7840129, “Structural basis for heme-dependent NCoR binding to the transcriptional repressor REV-ERBβ” (Science Advances, 2021).

System: REV-ERBβ LBD cobound to heme
Test: Crystal structures of REV-ERBβ LBD cobound to heme and NCoR ID peptides
Format: binding, human
Details: ID1 PDB 6WMQ, ID2 PDB 6WMS
Experimental: After overnight incubation at 4°C with peptide, REV-ERBβ LBD cobound to heme and peptide was buffer-exchanged into Hepes gel filtration buffer to remove unbound and concentrated to 15 mg/ml (ID2-bound) or 5 mg/ml (ID1-bound). Buffer-exchanged proteins were screened for conditions that produced crystals using the NR LBD (Molecular Dimensions), Structure (Molecular Dimensions), Index (Hampton Research), and PEG/Ion (Hampton Research) kits and sitting drop method (1-μl reservoir solution added to 1-μl drop of protein solution) at 22°C. REV-ERBβ LBD crystals cobound to heme and NCoR ID2 grew in 0.2 M Mg formate dihydrate and 20% (w/v) PEG 3350 (PEG/Ion), and REV-ERBβ LBD crystals cobound to heme and NCoR ID1 grew in 2.0 M ammonium sulfate, 0.1 M Na Hepes (pH 7.5), and 2% PEG 400 (Structure). Crystals in their respective condition were supplemented with 10% glycerol and flash-cooled in liquid nitrogen. X-ray diffraction data were collected at the Advanced Light Source synchrotron (Lawrence Berkeley National Laboratory) in 180 images with a 1° rotation per image. Data were processed, indexed, and scaled using Mosflm and Scala in CCP4 (Collaborative Computational Project No. 4) ([32], [33]). […]
Structures were aligned, and RMSD values were calculated in PyMOL using the “align” command with cycles set to 0 (no outliers were removed). […]

CC[C@H](C)[C@H](NC(=O)[C@H](CC(=O)O)NC(=O)[C@H](CCC(=O)O)NC(=O)[C@H](CC(C)C)NC(=O)CNC(=O)[C@H](CC(C)C)NC(=O)[C@H](CC(N)=O)NC(=O)[C@H](CO)NC(=O)[C@H](C)NC(=O)[C@@H]1CCCN1C(=O)[C@H](CC(=O)O)NC(C)=O)C(=O)N[C@H](C(=O)N[C@@H](CCCNC(=N)N)C(=O)N[C@@H](CCCCN)C(=O)N[C@@H](C)C(=O)N[C@@H](CC(C)C)C(=O)N[C@@H](CCSC)C(=O)NCC(=O)N[C@@H](CO)C(=O)N[C@@H](Cc1ccccc1)C(=O)N[C@@H](CC(=O)O)C(=O)N[C@@H](CC(=O)O)C(=O)N[C@@H](CCCCN)C(N)=O)[C@@H](C)CC [NCoR ID2 peptide]
interaction of bound ID peptide in crystal structure (in words): formed electrostatic interactions with the conserved charge clamp residue K421 on helix 3

Ac-RTHRLITLADHICQIITQDFARN-NH2 [NCoR ID1 peptide]
interaction of bound ID peptide in crystal structure (in words): formed electrostatic interactions with the conserved charge clamp residue K421 on helix 3
